This note sets out measurements from patent US10548316B2, “Diarylazole compound and harmful organism control agent” (Nippon Soda Co., Ltd., priority 2015, dated 2020).

Bounds are passed on as bounds.

In one data set the test system is Aphis craccivora. Kind of data set: Efficacy test against Aphis craccivora. Format: in vivo. The note with it: 96 h, spray on infested cowpea plants, nymphs, 4 days after spraying, read-out: mortality rate. As to the method: (§1) 5 parts of the compound of the present invention, 93.6 parts of dimethylformamide, and 1.4 parts of polyoxyethylene alkylaryl ether were mixed and dissolved to prepare an emulsion (I) of 5% of the active ingredient.
(§2) The insect mortality rate and the control rate were calculated by the following formula. Insect mortality rate (%)=(number of dead insects/number of sample insects)×100 Prevention rate=[1−(Nt)/(Nc)]×100
Cowpea plants were raised in No. 3 pots and the first true leaves were inoculated with Aphis craccivora nymphs. Emulsion (I) was diluted with water so that the concentration of the compound of the present invention reaches 125 ppm, followed by spraying the diluted liquid on the cowpea plants infested with Aphis craccivora nymphs. The cowpea plants were then placed in a thermostatic chamber with a temperature of 25° C. and a humidity of 60%. Life or death judgement was performed after 4 days were passed from the spraying, and the insect mortality rate of Aphis craccivora was calculated. The test was repeated twice.

The test system of another data set is Ornithodorus moubata. Kind of data set: Feeding effect test against Ornithodorus moubata. The conditions noted are these: 10 ppm in defibrin blood of sheep; third-nymphs; 14 days after the blood sucking. Format: in vivo. Here is the method:
A DMSO solution of the compound of the present invention was mixed with a defibrin blood of sheep to obtain a mixed solution with a concentration of 10 ppm. 2 ml of this mixed solution was placed in a container and capped with a parafilm membrane. Then, 20 third-nymphs of Ornithodorus moubata ere released to suck the blood through the parafilm membrane for about 30 minutes. Then, the nymphs were transferred to a storage container and incubated in a thermostatic chamber with a temperature of 28° C. and a humidity of 80%, and life or death judgement and developmental stage-investigation was performed 14 days after the blood sucking. The test was repeated twice.

For another data set, the system named is Culex pipiens. Kind of data set: Efficacy test against Culex pipiens. Format: in vivo. The note with it: for insect mortality rate: 2 ppm, first-instar larvae, after 1 day. As to the method:
as §1, §2
Emulsion (I) was diluted with water so that the concentration of the compound of the present invention reaches 2 ppm to prepare a chemical solution for test. 20 first-instar larvae of Culex pipiens were released into 100 ml of the chemical solution for test, then the number of dead insects was calculated after 1 day was passed, and the insect mortality rate was calculated by the formula. The test was repeated twice.

In another data set the test system is Plutella xylostella. The data set can be described thus: Efficacy test against Plutella xylostella. The conditions noted are these: 72 h, cabbage leaves soaked, second-instar larvae, after 3 days, read-out: mortality rate. It is filed as in vivo. Here is the method:
as §1, §2
Emulsion (I) was diluted with water so that the concentration of the compound of the present invention reaches 125 ppm. Cabbage leaves were soaked in the diluted liquid for 30 seconds. Then the cabbage leaves were put on Petri dishes, followed by inoculating 5 second-instar larvae of Plutella xylostella. The Petri dishes were placed in a thermostatic chamber with a temperature was 25° C. and a humidity of 60%. Life or death judgement was performed after 3 days were passed, and the insect mortality rate was calculated. The test was repeated twice.

For another data set, the system named is Spodoptera litura. Kind of data set: Efficacy test against Spodoptera litura. Format: in vivo. The note with it: 144 h, cabbage leaves soaked, second-instar larvae, after 6 days, read-out: insect mortality rate. Here is the method:
as §1, §2
Emulsion (I) was diluted with water so that the concentration of the compound of the present invention reaches 125 ppm. Cabbage leaves were soaked in the diluted liquid for 30 seconds. Then the cabbage leaves were put on Petri dishes, followed by inoculating 5 second-instar larvae of Spodoptera litura. The Petri dishes were placed in a thermostatic chamber with a temperature was 25° C. and a humidity of 60%. Life or death judgement was performed after 6 days were passed, and the insect mortality rate was calculated. The test was repeated twice.

Another data set has as its system Musca domestica. Kind of data set: Efficacy test against Musca domestica. It is filed as in vivo. The note with it: 100 ppm on cube sugar, adult female, after 24 hours, read-out: insect mortality rate. Here is the method: as §2
The compound of the present invention was diluted with acetone, followed by dropping to 1 g of cube sugar so that the concentration reaches to 100 ppm. The cube sugar was placed in a plastic cup and 10 adult female Musca domestica were released therein, followed by putting a lid on the cup. The cup was kept at 25° C., and life or death judgement was performed after 24 hours was passed from the releasing of Musca domestica, and the insect mortality rate was calculated by the formula. The test was repeated twice.

The next data set concerns Rhipicephalus microplus. The data set can be described thus: Contact effect test on Rhipicephalus microplus. The conditions noted are these: larvae, 24 hours after the chemical treatment, read-out: insect mortality rate. Format: in vivo. Here is the method: A DMSO solution of the compound of the present invention was diluted with water to obtain a test solution with a concentration of 100 ppm. This chemical solution was dropped into a container containing 20 Rhipicephalus microplus larvae, and then incubated in a thermostatic chamber with a temperature of 28° C. and a humidity of 80%. Life or death judgement was performed on the larvae 24 hours after the chemical treatment. The test was repeated twice.

Another data set deals with Aedes aegypti larvae. The data set can be described thus: Contact/feeding effect test on Aedes aegypti larvae. It is filed as in vivo. The note with it: final concentration of 10 ppm, first-instar larvae, 48 hours, read-out: insect mortality rate. Here is the method:
A DMSO solution of the compound of the present invention was diluted with water to obtain a diluted solution with a concentration of 100 ppm. 10 first-instar larvae of Aedes aegypti were placed in each well of a 96-well microtiter plate together with breeding water, and 1/10 volume of the diluted solution with a concentration of 100 ppm was added so that the test was carried out at a final concentration of 10 ppm. The microtiter plate was incubated in a thermostatic chamber with a temperature of 28° C. and a humidity of 80%, and life or death judgement was performed on the larvae was investigated 48 hours after the chemical treatment. The test was repeated twice.

The test system of a further data set is Phyllotreta striolata. The data set can be described thus: Efficacy test against Phyllotreta striolata. Format: in vivo. The conditions noted are these: 168 h, spray on bok choy seedlings, adults, 7 days after releasing, read-out: insect mortality rate. As to the method:
as §1, §2
Emulsion (I) was diluted with water so that the compound of the present invention reaches 125 ppm to prepare a test solution. The above diluted solution was sprayed on bok choy seedlings (seventh true leaf development stage) planted in No. 3 pots. After air-drying, the bok choy seedlings were put in a plastic cup and 10 adult Phyllotreta striolata were released therein. The plastic cup was stored in a thermostatic chamber with a temperature of 25° C. and a humidity of 65%, and life or death judgment was performed 7 days after releasing Phyllotreta triolata, and the insect mortality rate was calculated by the formula. The test was repeated twice.

In a further data set the test system is Lucilia cuprina larvae. Kind of data set: Contact/feeding effect test on Lucilia cuprina larvae. The note with it: 1000 ppm in horse meat, 48 hours, read-out: insect mortality rate. Format: in vivo. Here is the method: A DMSO solution of the compound of the present invention was mixed with horse meat to obtain a mixture with a concentration of 1000 ppm. 20 Lucilia cuprina larvae were introduced into a test tube with the mixture. The tube was incubated in a thermostatic chamber with a temperature of 28° C. and a humidity of 80%, and life and death judgement was performed on the larvae 48 hours after the start of the test. The test was repeated twice.

In another data set the test system is Pseudaletia separata. The data set can be described thus: Efficacy test against Pseudaletia separata (artificial diet). It is filed as in vivo. The conditions noted are these: in vivo. Here is the method: as §1, §2
0.8 g of commercially available artificial diet (Insecta US, manufactured by Nosan Corporation) and 1 μl of emulsion (1) were well mixed and 0.2 g of the resulting mixture was packed in a plastic test container (1.4 ml) per each treatment group to prepare test feeds.
2 second-instar larvae of Pseudaletia separata were inoculated into each treatment group and sealed with a plastic lid. The plastic test containers were placed in a thermostatic chamber with a temperature of 25° C., and the insect mortality rate and the food intake amount were investigated on the fifth day. The test was repeated twice.
Further, a test under the same conditions except that the compound of the present invention was removed from emulsion (I) was conducted as a solvent control group.

Another data set deals with Rhopalosiphum padi. The data set can be described thus: Efficacy test against Rhopalosiphum padi (seed treatment). It is filed as in vivo. The conditions noted are these: 0.1 g compound per 10 g wheat seeds, adults released 7 days after seeding, counted after 6 days. Here is the method: as §2
Nt: number of parasites in spray-treatment area
Nc: number of parasites in control area
0.1 g of each compound of the present invention was diluted with 2 ml of acetone to prepare chemical solutions for test. 10 g of wheat seeds was added to the chemical solution for test and air dried, followed by seedling 100 seeds in a planter. After keeping the planter in a warm room with a temperature of 25° C. for 7 days, 50 adult Rhopalosiphum padi were released in the planter. The number of surviving parasitized Rhopalosiphum padi was investigated after 6 days were passed, and the prevention rate was calculated by the formula. The test was repeated twice.

Regarding `CCS(=O)(=O)c1cc(C(F)(F)F)ccc1-n1ncc(-c2ccc(OC(F)(F)F)cc2)c1N` [Compound 1-12, 1-(2-(ethylsulfonyl)-4-(trifluoromethyl)phenyl)-4-(4-(trifluoromethoxy)phenyl)-1H-pyrazol-5-amine], the mortality at 125 ppm in the data set with Aphis craccivora, with Plutella xylostella, in the data set on Spodoptera litura and in the data set with Phyllotreta striolata was no less than 80% in each case. For the same compound, in the data set on Ornithodorus moubata, the insect mortality rate is recorded as no less than 90%. In the data set with Culex pipiens (Culex pipiens, 24 h, read-out: insect mortality rate), the mortality at 2 ppm worked out at 100%. The mortality at 100 ppm was no less than 80% in the data set on Musca domestica and no less than 90% in the data set on Rhipicephalus microplus. Also, the mortality at 10 ppm in the data set with Aedes aegypti larvae is no less than 90%. For the same compound, the mortality at 1000 ppm with Lucilia cuprina larvae is no less than 90%.
Turning to `CCS(=O)(=O)c1cc(C(F)(F)F)ccc1-n1cc(-c2ccc(OC(F)(F)F)cc2)cn1` [Compound 1-14], the insect mortality rate in the data set with Culex pipiens and in the data set on Pseudaletia separata was 100% throughout.
Consider `CCS(=O)(=O)c1cc(C(F)(F)F)ccc1-n1ncc(-c2ccc(OC(F)(F)F)cc2)c1Cl` [Compound 1-17, 5-chloro-1-(2-(ethylsulfonyl)-4-(trifluoromethyl)phenyl)-4-(4-(trifluoromethoxy)phenyl)-1H-pyrazole], for which the mortality at 125 ppm in the data set on Aphis craccivora, with Plutella xylostella, in the data set with Spodoptera litura and with Phyllotreta striolata was no less than 80% throughout.
With `CCS(=O)(=O)c1cc(C(F)(F)F)ccc1-n1ncc(-c2ccc(OC(F)(F)F)cc2)c1C` [Compound 1-19], the insect mortality rate in the data set on Culex pipiens and with Pseudaletia separata was 100% each time.
Consider `CCS(=O)(=O)c1cc(C(F)(F)F)ccc1-n1ncc(-c2ccc(C(F)(F)F)nc2)c1C` [Compound 1-24], for which the insect mortality rate with Culex pipiens and in the data set with Pseudaletia separata was 100% each time.
Consider `CCS(=O)(=O)c1cc(C(F)(F)F)ccc1-n1ncc(-c2ccc(C(F)(F)C(F)(F)F)nc2)c1N` [Compound 1-33], for which the prevention rate in the data set on Rhopalosiphum padi is on record as no less than 80%. This compound also showed an insect mortality rate with Pseudaletia separata of 100%.
In turn, `CCS(=O)(=O)c1cc(C(F)(F)F)ccc1-n1cc(-c2ccc(OC(F)(F)F)cc2)nn1` [Compound 4-8, 1-(2-(Ethylsulfonyl)-4-(trifluoromethyl)phenyl)-4-(4-(trifluoromethoxy)phenyl)-1H-1,2,3-triazole] displayed a melting point of 178 to 179 °C.
